From patent publication US9370520B2, “Macrocyclic LRRK2 kinase inhibitors” (IPSEN PHARMA S.A.S., priority 2011, dated 2016)
pIC50: −log10 of the molar value. Where two headings read alike, the source gives them in different places.

What was measured:
truncated LRRK2 = target: T1, truncated LRRK2 (Homo sapiens, UniProt Q5S007); assay: radiometric protein kinase assay (33PanQinase Activity Assay, Protocol 2), truncated LRRK2; format: biochemical
T1 construct: a truncated LRRK2 enzyme (GST tagged LRRK2 of amino acids 970-2527); GST; purchased Invitrogen Corporation
T1 sequence (Q5S007 970-2527): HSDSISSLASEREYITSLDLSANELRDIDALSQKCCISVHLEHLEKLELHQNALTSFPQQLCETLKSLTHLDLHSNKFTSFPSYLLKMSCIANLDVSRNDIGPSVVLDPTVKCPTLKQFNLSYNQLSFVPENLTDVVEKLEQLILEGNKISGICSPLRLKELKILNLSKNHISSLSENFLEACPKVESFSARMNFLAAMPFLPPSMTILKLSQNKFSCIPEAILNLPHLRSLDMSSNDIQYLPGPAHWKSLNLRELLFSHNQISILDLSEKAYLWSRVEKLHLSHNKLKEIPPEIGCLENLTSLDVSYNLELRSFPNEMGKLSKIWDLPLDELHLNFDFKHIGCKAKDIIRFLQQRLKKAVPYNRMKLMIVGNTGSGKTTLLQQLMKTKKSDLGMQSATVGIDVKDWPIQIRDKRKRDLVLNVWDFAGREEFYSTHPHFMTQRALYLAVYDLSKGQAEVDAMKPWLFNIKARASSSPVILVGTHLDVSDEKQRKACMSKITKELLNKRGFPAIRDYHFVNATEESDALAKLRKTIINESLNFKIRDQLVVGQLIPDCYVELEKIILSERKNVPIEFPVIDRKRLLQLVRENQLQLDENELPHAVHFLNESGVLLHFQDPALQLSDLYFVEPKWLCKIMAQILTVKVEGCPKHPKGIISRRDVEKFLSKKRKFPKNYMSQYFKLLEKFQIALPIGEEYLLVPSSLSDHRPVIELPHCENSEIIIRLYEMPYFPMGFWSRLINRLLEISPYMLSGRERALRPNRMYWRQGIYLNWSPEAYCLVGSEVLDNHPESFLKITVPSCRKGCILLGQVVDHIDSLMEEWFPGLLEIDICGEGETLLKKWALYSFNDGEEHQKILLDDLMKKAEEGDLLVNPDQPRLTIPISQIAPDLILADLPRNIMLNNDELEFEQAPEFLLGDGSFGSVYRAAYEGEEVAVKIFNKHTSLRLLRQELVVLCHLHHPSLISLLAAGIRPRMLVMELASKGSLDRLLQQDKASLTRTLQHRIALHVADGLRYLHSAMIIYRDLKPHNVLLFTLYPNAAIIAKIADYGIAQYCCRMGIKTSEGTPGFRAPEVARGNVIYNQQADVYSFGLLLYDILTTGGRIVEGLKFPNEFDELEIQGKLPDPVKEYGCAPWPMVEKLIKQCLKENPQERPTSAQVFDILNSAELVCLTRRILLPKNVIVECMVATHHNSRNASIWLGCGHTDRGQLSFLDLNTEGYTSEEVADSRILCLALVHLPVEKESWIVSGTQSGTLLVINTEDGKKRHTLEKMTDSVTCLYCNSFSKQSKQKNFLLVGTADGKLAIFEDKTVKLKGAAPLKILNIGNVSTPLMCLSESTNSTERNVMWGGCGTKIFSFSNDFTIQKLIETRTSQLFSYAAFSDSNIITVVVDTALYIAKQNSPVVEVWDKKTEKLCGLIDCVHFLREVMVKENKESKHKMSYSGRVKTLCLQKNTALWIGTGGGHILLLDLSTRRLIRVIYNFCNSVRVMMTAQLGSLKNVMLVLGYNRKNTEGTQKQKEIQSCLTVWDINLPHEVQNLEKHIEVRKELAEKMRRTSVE
Description: (§1) The inhibition of LRRK2 and LRRK1 kinase was assessed using LRRK2 and LRRK1 recombinant protein in an in vitro peptide-based kinase assay.
A radiometric protein kinase assay (^33PanQinase® Activity Assay) is used for measuring the kinase activity. All assays are performed in 96-well FlashPlates™ from Perkin Elmer in a 50 μl reaction volume. The reaction cocktail is pipetted in 4 steps in the following order: • 10 μl of non-radioactive ATP solution (in H2O) • 25 μl of assay buffer/[γ-^33P]-ATP mixture • 5 μl of test sample in 10% DMSO • 10 μl of enzyme/substrate mixture
The kinase is obtained from Invitrogen Corporation.
The reaction cocktails were incubated at 30° C. for 60 minutes. The reaction was stopped with 50 μl of 2% (v/v) H3PO4, plates were aspirated and washed two times with 200 μl 0.9% (w/v) NaCl. Incorporation of ^33Pi (counting of “cpm”) was determined with a microplate scintillation counter.

[1] = not given; remark: listed apart in the source
[2] = target: T2, truncated LRRK2 (GST tagged LRRK2 of amino acids 970-2527) (Homo sapiens, UniProt Q5S007); assay: LRRKtide 32P-ATP peptide kinase assay (Protocol 1), truncated LRRK2; format: biochemical; settings: 10 μM ATP, 200 μM lrrktide
T2 construct: GST tagged LRRK2 of amino acids 970-2527; GST
T2 sequence (Q5S007 970-2527): as above
Description: as §1
(§2) LRRK2 protein is prepared as described in Daniëls et al. ((2011) J Neurochem 116, 304-315.). HEK293T cells are transfected with pCHMWS-3xflag-LRRK2 plasmid using polyethyleneimine and lysed after 48-72 hours in lysis buffer (Tris 20 mM pH 7.5, NaCl 150 mM, EDTA 1 mM, Triton 1%, Glycerol 10%, protease inhibitor cocktail). Lysates are cleared by centrifugation at 20,000 g for 10 minutes and incubated with normal mouse IgGs bound to agarose beads to remove proteins aspecifically binding to agarose or mouse IgGs. After removal of the IgG bead slurry, lysates are incubated for 3 to 18 hours with flagM2 bound to agarose beads. Beads are washed 4 times with wash buffer (Tris 25 mM pH 7.5, NaCl 400 mM, Triton 1%) and rinsed in kinase buffer (Tris-HCl 25 mM pH 7.5, 10 mM MgCl2, 2 mM dithiothreitol (DTT), 0.02% triton, 5 mM beta-glycerophosphate, 0.1 mM Na3VO4). Proteins are eluted in 5 volumes of kinase buffer containing 100 μg/ml 3xflag peptide. For assays using purified protein bound to affinity resin, affinity beads are resuspended in an equal volume of kinase buffer unless otherwise indicated. Purity and concentration are assessed by SDS-PAGE (3-8% tris-acetate SDS gel) and Coomassie Brilliant Blue staining or silver staining. Alternatively, a truncated LRRK2 enzyme (GST tagged LRRK2 of amino acids 970-2527) and a truncated LRRK2-G2019S (GST tagged LRRK2-G2019S of amino acids 970-2527) are used.
(§3) For Irrktide phosphorylation, recombinant LRRK2 is incubated with 6 μCi of 32P-ATP (3000 Ci/mmol), 200 μM Irrktide, 10 μM ATP and compound or solvent per 40 μl reaction for 30 minutes at 30° C. Compounds are tested at concentrations ranging from […]; the final amount of DMSO in the kinase reaction is 1%. Reactions are stopped and spotted to P81 phosphocellulose paper and washed 4×10 minutes in 75 mM phosphoric acid. Lrrktide phosphorylation levels are measured via autoradiography. Kinase assays are performed for each condition in triplicate.
(§4) LRRKtide phosphorylation levels are plotted vs. the log of the compound concentration and inhibition curves are fitted from which IC50 values are derived.

[3] = target: T3, truncated LRRK2-G2019S (GST tagged LRRK2-G2019S of amino acids 970-2527) (Homo sapiens, UniProt Q5S007, G2019S); assay: LRRKtide 32P-ATP peptide kinase assay (Protocol 1), truncated LRRK2-G2019S; format: biochemical; settings: 10 μM ATP, 200 μM lrrktide
T3 construct: GST tagged LRRK2-G2019S of amino acids 970-2527; GST
T3 sequence (Q5S007 970-2527 G2019S): as the sequence (Q5S007 970-2527) above, with G1050S counted along it
Description: as §1, §2, §3, §4

[4] = Protocol 2, ATP 0.3 μM, substrate GSK3(14-27), read-out: IC50 for truncated LRRK2

## COC(=O)c1cc2cc(c1)-c1cnn3ccc(nc13)N(C(=O)OC(C)(C)C)CCN(C(=O)OC(C)(C)C)CCO2
From COC(=O)c1cc(O)cc(-c2cnn3ccc(N(CCN(CCO)C(=O)OC(C)(C)C)C(=O)OC(C)(C)C)nc23)c1, ether bond, DIAD/PPh3, toluene, 8.7 mM, 90.0 °C, 3.5 h
  ring closure, yield of all isomers: 89%

## O=C1CCNc2ccn3ncc(c3n2)-c2cc(F)cc(c2)OCCN1
From NCCOc1cc(F)cc(-c2cnn3ccc(NCCC(=O)O)nc23)c1, amide bond, HBTU/DIPEA, DMF, 28.6 mM, 25.0 °C, 1.0 h
  ring closure, yield of all isomers: 18%

## CC(C)C(=O)N1CCNCc2cccc(c2)-c2cnn3ccc(nc23)NCC1 [Compound 53]
Truncated LRRK2; [4]
  pIC50: < 6.00

## COCCC(=O)N1CCNCc2cccc(c2)-c2cnn3ccc(nc23)NCC1 [Compound 54]
Truncated LRRK2; [4]
  pIC50: 6.00 to 7.00

## CCCC(=O)N1CCNCc2cccc(c2)-c2cnn3ccc(nc23)NCC1 [Compound 55]
Truncated LRRK2; [4]
  pIC50: < 6.00

## CN(C)CCC(=O)N1CCNCc2cccc(c2)-c2cnn3ccc(nc23)NCC1 [Compound 56]
Truncated LRRK2; [4]
  pIC50: < 6.00

## O=C1CNc2ccn3ncc(c3n2)-c2cccc(c2)OCCCN1 [Compound 57]
Truncated LRRK2; [4]
  pIC50: < 6.00

## CN(C)CCN1CCN(C)c2ccn3ncc(c3n2)-c2cccc(c2)OCC1=O [Compound 58]
Truncated LRRK2; [4]
  pIC50: < 6.00

## O=C1CCNCc2cccc(c2)-c2cnn3ccc(nc23)NCCN1 [Compound 59]
Truncated LRRK2; [4]
  pIC50: < 6.00

## CN1CCC(=O)NCCNc2ccn3ncc(c3n2)-c2cccc(c2)C1 [Compound 60]
Truncated LRRK2; [4]
  pIC50: > 7.00

## CN1CC(=O)NCCNc2ccn3ncc(c3n2)-c2cccc1c2 [Compound 61]
Truncated LRRK2; [4]
  pIC50: < 6.00

## C[C@H]1NCc2cccc(c2)-c2cnn3ccc(nc23)NCCNC1=O [Compound 62]
Truncated LRRK2; [4]
  pIC50: < 6.00

## O=C(C1CC1)N1CCOc2cccc(c2)-c2cnn3ccc(nc23)N(CCO)CC1 [Compound 63]
Truncated LRRK2; [4]
  pIC50: 6.00 to 7.00

## C[C@@H]1NCc2cccc(c2)-c2cnn3ccc(nc23)NCCNC1=O [Compound 64]
Truncated LRRK2; [4]
  pIC50: < 6.00

## CN1CCCOc2cccc(c2)-c2cnn3ccc(nc23)NCCCC1=O [Compound 65]
Truncated LRRK2; [4]
  pIC50: < 6.00

## COc1ccc2cc1OCCN(C(=O)C1CC1)CCNc1ccn3ncc-2c3n1 [Compound 66]
Truncated LRRK2; [4]
  pIC50: 6.00 to 7.00

## O=C1CN(C(=O)C2CC2)CCNc2ccn3ncc(c3n2)-c2cccc(c2)N1 [Compound 67]
Truncated LRRK2; [4]
  pIC50: < 6.00

## O=C1CCC(=O)Nc2cccc(c2)-c2cnn3ccc(nc23)OCCCN1 [Compound 68]
Truncated LRRK2; [4]
  pIC50: < 6.00
[1]
  melting point: 295.1 °C

## NC(=O)c1cc2cc(c1)-c1cnn3ccc(nc13)NCCN(C(=O)C1CC1)CCO2 [Compound 69]
Truncated LRRK2; [4]
  pIC50: < 6.00
[1]
  melting point: > 300 °C

## C=CC(=O)N1CCNc2ccn3ncc(c3n2)-c2cccc(c2)OCC1 [Compound 70]
Truncated LRRK2; [4]
  pIC50: > 7.00
[1]
  melting point: > 300 °C

## CCC(=O)N1CCNc2ccn3ncc(c3n2)-c2cccc(c2)N(C)CC1 [Compound 71]
[1]
  melting point: > 300 °C

## O=C(C1CC1)N1CCNc2ccn3ncc(c3n2)-c2cccc(c2)OCC1 [Example 1]
[2]
  pIC50: > 7.00
[3]
  pIC50: > 7.00
[1]
  melting point: > 300 °C

## O=C(CCO)N1CCNc2ccn3ncc(c3n2)-c2cccc(c2)OCC1 [Example 4]
[2]
  pIC50: > 7.00
[3]
  pIC50: > 7.00
[1]
  melting point: > 300 °C

## O=S1(=O)CCCOc2cccc(c2)-c2cnn3ccc(nc23)NCCN1 [Example 8]
[1]
  melting point: 269 °C

## O=C(CCF)N1CCNc2ccn3ncc(c3n2)-c2cccc(c2)OCC1 [Example 10]
Truncated LRRK2; [4]
  pIC50: > 7.00

## CN(C)C(=O)N1CCNc2ccn3ncc(c3n2)-c2cccc(c2)OCC1 [Example 11]
Truncated LRRK2; [4]
  pIC50: > 7.00

## CCOC(=O)N1CCCNc2ccn3ncc(c3n2)-c2cccc(c2)OCC1 [Example 12]
Truncated LRRK2; [4]
  pIC50: 6.00 to 7.00

## NC(=O)CN1CCNc2ccn3ncc(c3n2)-c2cccc(c2)OCC1 [Example 13]
Truncated LRRK2; [4]
  pIC50: > 7.00

## CS(=O)(=O)N1CCNc2ccn3ncc(c3n2)-c2cccc(c2)OCC1 [Example 14]
Truncated LRRK2; [4]
  pIC50: 6.00 to 7.00

## CCC(=O)N1CCNc2cccc(c2)-c2cnn3ccc(nc23)NCC1 [Example 17]
Truncated LRRK2; [4]
  pIC50: > 7.00

## COCCC(=O)N1CCCN(C)c2cccc(c2)-c2cnn3ccc(nc23)NCC1 [Example 19]
Truncated LRRK2; [4]
  pIC50: 6.00 to 7.00

## O=C(N1CCNc2ccn3ncc(c3n2)-c2cccc(c2)OCC1)N1CCN(CCF)CC1 [Example 29]
Truncated LRRK2; [4]
  pIC50: 6.00 to 7.00

## COCCC(=O)N1CCNc2ccn3ncc(c3n2)-c2cccc(c2)OCC1 [Example 31]
Truncated LRRK2; [4]
  pIC50: 6.00 to 7.00

## O=C(c1ccc[nH]1)N1CCNc2ccn3ncc(c3n2)-c2cccc(c2)OCC1 [Example 32]
Truncated LRRK2; [4]
  pIC50: > 7.00

## O=C(c1cocn1)N1CCNc2ccn3ncc(c3n2)-c2cccc(c2)OCC1 [Example 33]
Truncated LRRK2; [4]
  pIC50: > 7.00

## O=S(=O)(C1CC1)N1CCNc2ccn3ncc(c3n2)-c2cccc(c2)OCC1 [Example 34]
Truncated LRRK2; [4]
  pIC50: 6.00 to 7.00

## O=C(C1CC1)N1CCNc2cccc(c2)-c2cnn3ccc(nc23)NCC1 [Example 35]
Truncated LRRK2; [4]
  pIC50: > 7.00

## O=C(CN1CCOCC1)N1CCNc2ccn3ncc(c3n2)-c2cccc(c2)OCC1 [Example 36]
Truncated LRRK2; [4]
  pIC50: 6.00 to 7.00

## CNCC(=O)N1CCNc2ccn3ncc(c3n2)-c2cccc(c2)OCC1 [Example 37]
Truncated LRRK2; [4]
  pIC50: > 7.00

## NC(=O)N1CCNc2ccn3ncc(c3n2)-c2cccc(c2)OCC1 [Example 38]
Truncated LRRK2; [4]
  pIC50: > 7.00

## CN1CCN(CC(=O)N2CCNc3ccn4ncc(c4n3)-c3cccc(c3)OCC2)CC1 [Example 39]
Truncated LRRK2; [4]
  pIC50: 6.00 to 7.00

## O=C(CCN1CCCC1)N1CCNc2ccn3ncc(c3n2)-c2cccc(c2)OCC1 [Example 40]
Truncated LRRK2; [4]
  pIC50: > 7.00

## CN(C)CCC(=O)N1CCNc2ccn3ncc(c3n2)-c2cccc(c2)OCC1 [Example 41]
Truncated LRRK2; [4]
  pIC50: > 7.00

## N#Cc1ccc2cc1OCCN(C(=O)C1CC1)CCNc1ccn3ncc-2c3n1 [Example 42]
Truncated LRRK2; [4]
  pIC50: > 7.00

## O=C1CCCNc2ccn3ncc(c3n2)-c2cccc(c2)OCCCN1 [Example 43]
Truncated LRRK2; [4]
  pIC50: 6.00 to 7.00

## CC(C)N1CCNc2ccn3ncc(c3n2)-c2cccc(c2)OCC1=O [Example 44]
Truncated LRRK2; [4]
  pIC50: < 6.00

## O=C1NCCN(C(=O)C2CC2)CCNc2ccn3ncc(c3n2)-c2cccc1c2 [Example 45]
Truncated LRRK2; [4]
  pIC50: 6.00 to 7.00

## CN(C)CCN1CCNc2ccn3ncc(c3n2)-c2cccc(c2)OCC1=O [Example 46]
Truncated LRRK2; [4]
  pIC50: < 6.00

## CN1CCNc2ccn3ncc(c3n2)-c2cccc(c2)OCCCS1(=O)=O [Example 47]
Truncated LRRK2; [4]
  pIC50: 6.00 to 7.00

## CN(C)CCN1CCN(C(=O)C2CC2)CCOc2cccc(c2)-c2cnn3ccc1nc23 [Example 48]
Truncated LRRK2; [4]
  pIC50: 6.00 to 7.00

## O=C1CNc2cccc(c2)-c2cnn3ccc(nc23)NCCN1 [Example 49]
Truncated LRRK2; [4]
  pIC50: 6.00 to 7.00

## O=C(CF)N1CCNc2ccn3ncc(c3n2)-c2cccc(c2)OCC1 [Example 50]
Truncated LRRK2
  pIC50: > 7.00

## O=C(C1CC1)N1CCNCc2cccc(c2)-c2cnn3ccc(nc23)NCC1 [Example 51]
Truncated LRRK2; [4]
  pIC50: 6.00 to 7.00

## CC(=O)N1CCNCc2cccc(c2)-c2cnn3ccc(nc23)NCC1 [Example 52]
Truncated LRRK2; [4]
  pIC50: 6.00 to 7.00
